Broadly, the Ki is a dissociation constant, usually derived from enzyme kinetics or from competition with a known ligand.

This note sets out measurements from patent EP1173432B9, “PIPERIDINE-INDOLE COMPOUNDS HAVING 5-HT6 AFFINITY” (NPS Allelix Corp., priority 1999, dated 2000).

Where a name gives a salt, the structure may show the parent alone. Where only a bound is given, the exact number is not on record here.

Test [1] deals with T1, human 5-HT6 receptor (Homo sapiens, UniProt P50406).
T1 construct: expressed in transfected cells; host or cells: recombinant cells
The test is described as follows: Binding affinity for the 5-HT6 receptor (3H-LSD displacement, membranes of recombinant cells). The settings on record: 3H-LSD radioligand, 60 minute incubation at 37 °C. The method, then:
All of the compounds of the invention were evaluated using cell types receptive specifically to the 5-HT6 receptor (for cloning and characterization of the human 5-HT6 receptor see Kohen, et al. J. Neurochemistry, 66, 1996: 47-56). […] After a 60 minute incubation at 37 °C, the incubation was terminated by vacuum filtration. The filters were washed with buffer and the filters were counted for radioactivity using liquid scintillation spectrometry. The affinity of the test compound for the 5-HT6 receptor was determined by computer-assisted analysis of the data and determining the amount of the compound necessary to inhibit 50% of the binding of the radioligand to the receptor. Concentrations ranging from 10^-11 M to 10^-5 M of the test compound were evaluated.

Test [2] deals with T2, human 5-HT2C (Homo sapiens, UniProt P28335).
T2 sequence (P28335 33-458): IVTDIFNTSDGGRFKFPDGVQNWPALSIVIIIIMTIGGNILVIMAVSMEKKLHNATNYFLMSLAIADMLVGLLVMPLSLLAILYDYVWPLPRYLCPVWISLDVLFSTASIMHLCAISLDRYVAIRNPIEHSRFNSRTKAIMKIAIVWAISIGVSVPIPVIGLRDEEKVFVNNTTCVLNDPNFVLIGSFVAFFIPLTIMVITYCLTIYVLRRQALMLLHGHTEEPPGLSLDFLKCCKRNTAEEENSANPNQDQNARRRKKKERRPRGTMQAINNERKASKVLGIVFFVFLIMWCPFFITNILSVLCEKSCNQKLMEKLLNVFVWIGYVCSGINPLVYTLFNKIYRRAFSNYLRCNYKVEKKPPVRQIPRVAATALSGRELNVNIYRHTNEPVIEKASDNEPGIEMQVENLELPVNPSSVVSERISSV
The test is described as follows: Binding selectivity for 5-HT6 relative to the 5-HT2C receptor. The settings on record: selectivity 5-HT6 over 5-HT2C.

In test [3] the target is 5-HT7 receptors (Homo sapiens, UniProt P34969). Nature of the test: Binding selectivity for 5-HT6 relative to the 5-HT7 receptor. The note with it: selectivity 5-HT6 over 5-HT7.
Chain of 5-HT7 receptors (P34969 whole entry): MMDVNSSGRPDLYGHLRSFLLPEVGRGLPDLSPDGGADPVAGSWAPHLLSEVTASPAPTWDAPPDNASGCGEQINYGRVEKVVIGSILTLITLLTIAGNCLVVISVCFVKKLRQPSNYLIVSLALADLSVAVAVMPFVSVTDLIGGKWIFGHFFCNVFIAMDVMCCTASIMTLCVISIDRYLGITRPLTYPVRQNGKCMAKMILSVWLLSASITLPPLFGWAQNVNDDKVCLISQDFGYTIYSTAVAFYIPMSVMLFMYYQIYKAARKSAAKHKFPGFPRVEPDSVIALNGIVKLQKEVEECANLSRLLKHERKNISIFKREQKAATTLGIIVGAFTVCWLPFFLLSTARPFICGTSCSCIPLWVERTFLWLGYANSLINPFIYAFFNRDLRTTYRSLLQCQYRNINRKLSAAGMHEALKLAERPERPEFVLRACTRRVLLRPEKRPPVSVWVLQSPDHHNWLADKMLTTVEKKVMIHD

T1 sequence (P50406 whole entry): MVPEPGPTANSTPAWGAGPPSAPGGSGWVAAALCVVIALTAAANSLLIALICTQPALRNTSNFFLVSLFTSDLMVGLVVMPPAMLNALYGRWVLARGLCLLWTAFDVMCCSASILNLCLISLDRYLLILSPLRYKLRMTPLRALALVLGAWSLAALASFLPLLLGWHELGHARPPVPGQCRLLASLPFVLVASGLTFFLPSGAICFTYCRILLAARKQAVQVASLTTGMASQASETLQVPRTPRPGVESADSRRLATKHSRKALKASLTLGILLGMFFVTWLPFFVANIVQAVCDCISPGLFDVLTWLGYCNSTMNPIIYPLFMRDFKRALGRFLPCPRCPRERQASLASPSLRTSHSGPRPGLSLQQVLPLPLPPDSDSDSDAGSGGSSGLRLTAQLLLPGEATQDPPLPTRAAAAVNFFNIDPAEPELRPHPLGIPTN

For the compound `CN1CC=C(c2cn(S(=O)(=O)c3ccc(F)cc3)c3ccccc23)CC1` [Example 4c, 1-(4-Fluorophenylsulfonyl)-3-(1-methyl-1,2,3,6-tetrahydro-4-pyridinyl)indole], in test [1], the Ki is not above 5 nM. With `CN1CC=C(c2cn(S(=O)(=O)c3ccc(Cl)cc3)c3ccc(F)cc23)CC1` [Example 4bb, 1-(4-Chlorophenylsulfonyl)-5-fluoro-3-(1-methyl-1,2,3,6-tetrahydro-4-pyridinyl)indole], in test [1], the Ki was not above 5 nM. Besides, the “fold greater affinity for the human 5-HT6 receptor relative to the human 5-HT2C receptor” value in test [2] is given as not below 60 fold. The “fold greater affinity for the human 5-HT6 receptor relative to the human 5-HT7 receptor” value in test [3] was not below 60 fold.

Take `Cc1ccc(S(=O)(=O)n2cc(C3=CCN(C)CC3)c3cc(OC4CCCCC4)ccc32)cc1` [Example 4i, 5-Cyclohexyloxy-1-(4-methylphenylsulfonyl)-3-(1-methyl-1,2,3,6-tetrahydro-4-pyridinyl)indole]: the inhibitory constant (Ki) in test [1] was not above 50 nM. Besides, the “fold greater affinity for the human 5-HT6 receptor relative to the human 5-HT2C receptor” value in test [2] is not below 60 fold. Moreover, the “fold greater affinity for the human 5-HT6 receptor relative to the human 5-HT7 receptor” value in test [3] is not below 60 fold. Turning to `Cc1ccc(S(=O)(=O)n2cc(C3=CCN(C)CC3)c3cc(OC(F)(F)F)ccc32)cc1` [Example 4kk, 1-(4-Methylphenylsulfonyl)-3-(1-methyl-1,2,3,6-tetrahydro-4-pyridinyl)-5-trifluoromethoxyindole], the Ki in test [1] was not above 5 nM. Still for that read-out and setting: as for `CN1CC=C(c2cn(S(=O)(=O)c3ccccc3)c3ccccc23)CC1` [Example 4a, 3-(1-Methyl-1,2,3,6-tetrahydro-4-pyridinyl)-1-phenylsulfonylindole], the figure is not above 5 nM; as for `CN1CC=C(c2cn(S(=O)(=O)c3ccc(F)cc3)c3ccc(Cl)cc23)CC1` [Example 4gg, 5-Chloro-1-(4-fluorophenylsulfonyl)-3-(1-methyl-1,2,3,6-tetrahydro-4-pyridinyl)indole], not above 5 nM; as for `Cc1cc(C)c(S(=O)(=O)n2cc(C3=CCN(C)CC3)c3cc(F)ccc32)c(C)c1` [Example 4g, 5-Fluoro-3-(1-methyl-1,2,3,6-tetrahydro-4-pyridinyl)-1-(2,4,6-trimethylphenylsulfonyl)indole], not above 50 nM.

In the case of `Cc1ccc(S(=O)(=O)n2cc(C3=CCN(C)CC3)c3cc(F)cc(F)c32)cc1` [Example 4ww, 5,7-Difluoro-3-(1-methyl-1,2,3,6-tetrahydro-4-pyridinyl)-1-(4-methylphenylsulfonyl)indole], the Ki in test [1] was not above 5 nM.

As for `CN1CC=C(c2cn(S(=O)(=O)c3cccc4ccccc34)c3c(F)cc(F)cc23)CC1` [Example 4aaa, 5,7-Difluoro-3-(1-methyl-1,2,3,6-tetrahydro-4-pyridinyl)-1-(1-naphthylsulfonyl)indole], the Ki in test [1] was not above 5 nM. Same read-out and setting: for `CN1CC=C(c2cn(S(=O)(=O)c3ccc(Br)cc3)c3ccc(F)cc23)CC1` [Example 4d, 1-(4-Bromophenylsulfonyl)-5-fluoro-3-(1-methyl-1,2,3,6-tetrahydro-4-pyridinyl)indole] the value was not above 50 nM. Take `CN1CC=C(c2cn(S(=O)(=O)c3ccccc3Br)c3ccc(F)cc23)CC1` [Example 4z, 1-(2-Bromophenylsulfonyl)-5-fluoro-3-(1-methyl-1,2.3,6-tetrahydro-4-pyridinyl)indole]: the Ki in test [1] is not above 5 nM. The “fold greater affinity for the human 5-HT6 receptor relative to the human 5-HT2C receptor” value in test [2] was not below 60 fold. In addition, the “fold greater affinity for the human 5-HT6 receptor relative to the human 5-HT7 receptor” value in test [3] was not below 60 fold. With `Cc1ccc(S(=O)(=O)n2cc(C3=CCN(C)CC3)c3cc(C(F)(F)F)ccc32)cc1` [Example 4qq, 1-(4-Methylphenylsulfonyl)-3-(1-methyl-1,2,3,6-tetrahydro-4-pyridinyl)-5-trifluoromethylindole hydrochloride], the Ki in test [1] is not above 50 nM.

As to `Cc1ccc(S(=O)(=O)n2cc(C3=CCN(C)CC3)c3cc(F)ccc32)cc1` [Example 3b, 5-Fluoro-1-(4-methylphenylsulfonyl)-3-(1-methyl-1,2,3,6-tetrahydro-4-pyridinyl)indole], the Ki in test [1] is not above 5 nM. In test [2], the “fold greater affinity for the human 5-HT6 receptor relative to the human 5-HT2C receptor” value is given as not below 60 fold. For the same compound, the “fold greater affinity for the human 5-HT6 receptor relative to the human 5-HT7 receptor” value in test [3] is given as not below 60 fold. For `CN1CC=C(c2cn(S(=O)(=O)c3cc(Cl)ccc3Cl)c3ccc(F)cc23)CC1` [Example 4e, 5-Fluoro-1-(2,5-dichlorophenylsulfonyl)-3-(1-methyl-1,2,3,6-tetrahydro-4-pyridinyl)indole], the Ki in test [1] is not above 50 nM. `CN1CC=C(c2cn(S(=O)(=O)c3ccc(Cl)cc3)c3ccc(OC(F)(F)F)cc23)CC1` [Example 4jj, 1-(4-Chlorophenylsulfonyl)-3-(1-methyl-1,2,3,6-tetrahydro-4-pyridinyl)-5-trifluoromethoxyindole]: the Ki in test [1] was not above 5 nM. Still for that read-out and setting: for `CN1CC=C(c2cn(S(=O)(=O)c3ccc(Cl)cc3)c3c(F)cc(F)cc23)CC1` [Example 4zz, 1-(4-Chlorophenylsulfonyl)-5,7-difluoro-3-(1-methyl-1,2,3,6-tetrahydro-4-pyridinyl)indole] the value was not above 5 nM.

On to `COc1ccc(S(=O)(=O)n2cc(C3=CCN(C)CC3)c3ccccc32)cc1` [Example 4b, 1-(4-Methoxyphenylsulfonyl)-3-(1-methyl-1,2,3,6-tetrahydro-4-pyridinyl)indole], for which the Ki in test [1] was not above 50 nM. `CN1CC=C(c2cn(S(=O)(=O)c3ccc(Cl)c([N+](=O)[O-])c3)c3ccc(F)cc23)CC1` [Example 4f, 1-(4-Chloro-3-nitrophenylsulfonyl)-5-fluoro-3-(1-methyl-1,2,3,6-tetrahydro-4-pyridinyl)indole]: the Ki in test [1] was not above 50 nM. Consider `CN1CC=C(c2cn(S(=O)(=O)c3ccc4ccccc4c3)c3ccc(F)cc23)CC1` [Example 4ff, 5-Fluoro-3-(1-methyl-1,2,3,6-tetrahydro-4-pyridinyl)-1-(2-naphthylsulfonyl)indole], for which the “fold greater affinity for the human 5-HT6 receptor relative to the human 5-HT2C receptor” value in test [2] was not below 60 fold. Besides, in test [3], the “fold greater affinity for the human 5-HT6 receptor relative to the human 5-HT7 receptor” value is recorded as not below 60 fold. As for `CN1CC=C(c2cn(S(=O)(=O)c3cccc4ccccc34)c3ccc(F)cc23)CC1` [Example 4ee, 5-Fluoro-3-(1-methyl-1,2,3,6-tetrahydro-4-pyridinyl)-1-(1-naphthylsulfonyl)indole], in test [1], the Ki is not above 5 nM. Consider `CN1CC=C(c2cn(S(=O)(=O)c3ccc(F)cc3)c3cc(Br)ccc23)CC1` [Example 4k, 6-Bromo-1-(4-fluorophenylsulfonyl)-3-(1-methyl-1,2,3,6-tetrahydro-4-pyridinyl)-indole], for which the Ki in test [1] was not above 50 nM.
